≈ marks a conversion by molar mass, not a printed value. Entries after “also recorded” stand apart in the source; their conditions may differ. Like-named read-outs stand apart in the source and are kept apart here. Marks after values point to notes of the source that are not given here.
Assays:
[1] = system: preformed biofilms of S. aureus DSM 1104; assay: Disruption of preformed biofilms, crystal violet assay; format: cell-based, Staphylococcus aureus
Description: Therefore, Acp A–G were evaluated against preformed biofilms of S. aureus using crystal violet staining.[47]
Cultures of S. aureus DSM 1104 were prepared by inoculating 1 mL aliquots from a frozen stock (−20 °C) into 25 mL of CASO medium and incubating them overnight at 37 °C with shaking at 130 rpm.
The crystal violet assay was performed according to a previously reported procedure.[47] Arcopilins A–G were tested in serial dilutions (250–2 μg/mL), with methanol and microporenic acid A (MAA) as negative and positive controls, respectively. Statistical differences between samples and the controls were determined using a two-tailed Student’s t test, with statistical significance defined as p < 0.01. Statistical analysis was carried out using GraphPad Prism 9 (GraphPad Software, San Diego, CA).[58]

[2] = system: S. pombe DSM 70572; assay: MIC against fungi (antimicrobial assay); format: cell-based, Schizosaccharomyces pombe
Description: (§1) The antimicrobial activities of compounds 1–7 (Acp A–G) were assessed against different bacterial and fungal strains in addition to their cytotoxic effects on two mammalian cell lines. The tested microorganisms comprised a diverse array of clinically relevant pathogens, encompassing sensitive indicator strains. Among the Gram-positive bacteria were Bacillus subtilis, Staphylococcus aureus, and Mycolicibacterium smegmatis. Gram-negative bacteria included Acinetobacter baumannii, Chromobacterium violaceum, Escherichia coli, and Pseudomonas aeruginosa. Additionally, filamentous fungi such as Mucor hiemalis and yeasts including Candida albicans, Wickerhamomyces anomalus, Rhodotorula glutinis, and Schizosaccharomyces pombe were included. Generally, all compounds presented similar biological properties, summarized in weak or no activity against fungal pathogens as well as weak to moderate inhibition of Gram-positive bacteria (Table 2).
(§2) The antimicrobial and cytotoxic assays were performed according to the methods reported previously.[57]

[3] = system: C. albicans DSM 1665; assay: MIC against fungi (antimicrobial assay); format: cell-based, Candida albicans
Description: as §1, §2

[4] = system: planktonic cells of S. aureus DSM 1104; assay: Checkerboard broth dilution assay (FICI); format: cell-based, Staphylococcus aureus; conditions: for MIC: Staphylococcus aureus; for increase of the potency of the antibiotic in combination with Acp A: Acp A 3.9 μg/mL, MIC alone versus in combination
Text: After assessing the effects of Acp A on the pathogen S. aureus, we delved deeper into the interaction of Acp A with established antibiotics (GM and Vac). This exploration focused on both planktonic cells and preformed biofilms of S. aureus. Consequently, we used a checkerboard assay to determine the fractional inhibitory concentration index (FICI) for combinations involving Acp A, GM, or Vac based on both their MIC values in combination.[49]
The interaction between arcopilin A, vancomycin, and gentamicin against S. aureus DSM 1104 was evaluated using a checkerboard broth dilution method to determine the fractional inhibitory concentration indices (FICIs), calculated as FIC = MIC of drug A in combination/MIC of drug A alone + MIC of drug B in combination/MIC of drug B alone.[59] The FICIs were interpreted as synergistic (FICI ≤ 0.5). For this assay, a seed culture was prepared as previously described to inoculate fresh CASO with 4% glucose broth to match the turbidity of a 0.1 McFarland standard suspension. Then, 100 μL of bacterial suspension was distributed in 96-well nontissue microtiter plates (TPP nontissue culture ref no. 92197, Switzerland). Arcopilin A (7.8–2 μg/mL) and antibiotics (vancomycin and gentamicin: 31.3–0.016 μg/mL) were added in increasing concentrations in columns and rows, respectively. The experiments were conducted in duplicate.

[5] = system: S. aureus DSM 346; assay: MIC against bacteria (antimicrobial assay); format: cell-based, Staphylococcus aureus; conditions: for MIC: Staphylococcus aureus, DSM346, DSM 346, – = no activity observed under test conditions
Description: as §1, §2

[6] = system: preformed biofilm cells of S. aureus DSM 1104; assay: XTT assay, metabolic activity in preformed biofilm cells; format: cell-based, Staphylococcus aureus; conditions: 24 h treatment
Description: The seed culture of S. aureus DSM 1104 was prepared as previously described, and its OD600 was adjusted to match the turbidity of a 0.001 McFarland standard. Next, 150 μL of this bacterial solution in CASO with 4% glucose broth was incubated in 96-well tissue plates (TPP tissue culture ref no. 92196, Switzerland) for 24 h at 150 rpm. After incubation, the supernatant was discarded and 150 μL of the fresh media was added to the wells, along with serially diluted arcopilin A (31.3–0.5 μg/mL). The plate was further incubated for 24 h. Afterward, XTT (Cell profile XTT kit, Roche, Switzerland) was prepared in phosphate-buffered saline (PBS) at a final concentration of 0.3 mg/mL. The plate was washed three times with PBS buffer, and then, 150 μL of the prepared XTT solution was added to each well. Plates were further incubated for an additional 4 h at 37 °C while shaking (150 rpm), and absorbance was measured at 490 nm using a plate reader (Synergy 2, BioTek, Santa Clara). Methanol (2.5%) was used as the solvent control. Error bars indicate the standard deviation (SD) of duplicate with two repeats.

[7] = system: B. subtilis DSM 10; assay: MIC against bacteria (antimicrobial assay); format: cell-based, Bacillus subtilis; conditions: for MIC: Bacillus subtilis, DSM10, DSM 10, – = no activity observed under test conditions; for MIC B. subtilis: supplement CSV, decimal comma, unit not given, in µg/mL
Description: as §1, §2

[8] = system: S. aureus DSM 1104; assay: MIC against bacteria (antimicrobial assay); format: cell-based, Staphylococcus aureus
Text: The tested microorganisms comprised a diverse array of clinically relevant pathogens, encompassing sensitive indicator strains. Among the Gram-positive bacteria were Bacillus subtilis, Staphylococcus aureus, and Mycolicibacterium smegmatis. Gram-negative bacteria included Acinetobacter baumannii, Chromobacterium violaceum, Escherichia coli, and Pseudomonas aeruginosa. Additionally, filamentous fungi such as Mucor hiemalis and yeasts including Candida albicans, Wickerhamomyces anomalus, Rhodotorula glutinis, and Schizosaccharomyces pombe were included.
as §2

[9] = system: KB-3-1 (ACC 158); assay: Cytotoxicity against mammalian cell lines; format: cell-based; conditions: Homo sapiens, KB 3-1; ACC 158; – = no activity observed under test conditions; read-out: IC50 against mammalian cell lines, KB-3-1
Description: as §1, §2

[10] = system: L929 (ACC 2); assay: Cytotoxicity against mammalian cell lines; format: cell-based; conditions: Mus musculus, L929; ACC 2; – = no activity observed under test conditions; read-out: IC50 against mammalian cell lines, L929
Description: as §1, §2

[11] = system: M. hiemalis DSM 2656; assay: MIC against fungi (antimicrobial assay); format: cell-based, Mucor hiemalis; conditions: for MIC: Mucor hiemalis, DSM2656; for MIC M. hiemalis: supplement CSV, decimal comma, unit not given, in µg/mL
Description: as §1, §2

[12] = system: M. smegmatis ATCC 700084; assay: MIC against bacteria (antimicrobial assay); format: cell-based, Mycolicibacterium smegmatis
Description: as §1, §2

[13] = system: C. violaceum DSM 30191; assay: MIC against bacteria (antimicrobial assay); format: cell-based; conditions: Chromobacterium violaceum, DSM30191, – = no activity observed under test conditions
Description: as §1, §2

[14] = system: E. coli DSM 1116; assay: MIC against bacteria (antimicrobial assay); format: cell-based; conditions: Escherichia coli, DSM1116, – = no activity observed under test conditions
Description: as §1, §2

[15] = system: preformed biofilms of S. aureus DSM 1104; assay: CFU count analysis, synergistic effects on preformed biofilms; format: cell-based, Staphylococcus aureus; conditions: Acp A 7.8–3.9 μg/mL, GM 7.8–2 μg/mL, Vac 15.6–3.9 μg/mL
Description: The seed culture of S. aureus DSM 1104 was prepared as previously described, and the OD600 was adjusted to match the turbidity of a 0.001 McFarland standard. Then, 150 μL of bacterial solution in CASO with 4% glucose broth was incubated in 96-well tissue plates (TPP tissue culture ref no. 92196, Switzerland) for 24 h at 150 rpm. […] Methanol (2.5%) was used as the solvent control. The plates were incubated for a further 24 h at 37 °C. Colony-forming unit (CFU) count analysis of arcopilin A, antibiotics (vancomycin and gentamicin), and their combinations was performed as previously described.[58] Cells were suspended in the well 50 times. Dilution series in 1 to 10 steps (20 μL in 200 μL) were prepared down to a final dilution level of 10^–6, and 100 μL of this last dilution was platted on LB agar plates using 3 mm small glass beads (5 to 10, Omnilab, Germany) to homogeneously spread the liquid. Individual colonies on agar plates were counted after incubation at 30 °C for 24 and 48 h.[60] Afterward, CFUs were calculated by considering the dilution factors. Error bars indicate the SD of duplicate with two repeats.

[16] = system: W. anomalus DSM 6766; assay: MIC against fungi (antimicrobial assay); format: cell-based, Wickerhamomyces anomalus; conditions: – = no activity observed under test conditions
Description: as §1, §2

[17] = system: R. glutinis DSM 10134; assay: MIC against fungi (antimicrobial assay); format: cell-based, Rhodotorula glutinis; conditions: – = no activity observed under test conditions
Description: as §1, §2

[18] = system: S. aureus; conditions: cited from earlier work
[19] = system: methicillin-resistant S. aureus (MRSA); conditions: cited from earlier work
[20] = supplement CSV, decimal comma, unit not given, in µg/mL
[21] = DSM1104, compound alone, read-out: MIC of each single compound (MICs)
[22] = DSM 2656, – = no activity observed under test conditions

CC(=O)[C@H](C)C[C@@H](C)C[C@H](C)C(=O)C1=C(O)/C(=C/c2ccccc2)NC1=O [Acp A, Arcopilin A]
efficacy toward preformed biofilms ([1]; at 3.9 μg/mL): 35–45%
efficacy toward preformed biofilms ([1]; concentration range 15.6 to 250 μg/mL): 50–60%
disrupting effect on preformed biofilms (in words) ([1]; tested 250–2 μg/mL): most promising disrupting effects; also recorded: remarkable effectiveness
MIC ([2]; Schizosaccharomyces pombe, DSM70572, DSM 70572, – = no activity observed under test conditions): 66.7 µg/mL (≈ 181 µM)
MIC S. pombe [2, 20]: 66,7
MIC ([3]; Candida albicans, DSM1665, DSM 1665, – = no activity observed under test conditions): 66.7 µg/mL (≈ 181 µM)
MIC C. albicans [3, 20]: 66,7
MIC [4, 21]: 31.3 µg/mL
decrease of the MIC value when combined with each antibiotic ([4]; combined with GM or Vac): ~10 fold
MIC [5]: 66.7 µg/mL (≈ 181 µM)
MIC S. aureus ([5]; supplement CSV, S. aureus, decimal comma, unit not given, in µg/mL): 66,7
lowest concentration with significant reduction in metabolic activity [6]: 3.9 µg/mL
MIC [7]: 66.7 µg/mL (≈ 181 µM)
MIC B. subtilis [7]: 66,7
MIC ([8]; Staphylococcus aureus, DSM1104, DSM 1104): 31.3 µg/mL (≈ 84.7 µM)
MIC S. aureus ([8]; supplement CSV, second S. aureus column (value matches DSM 1104 of Table 2), decimal comma, unit not given, in µg/mL): 31,3
IC50 [9]: 8.9 µg/mL (≈ 24.1 µM)
IC50 [10]: 14 µg/mL (≈ 37.9 µM)
MIC [11, 22]: 66.7 µg/mL (≈ 181 µM)
MIC M. hiemalis [11]: 66,7

CC[C@H](C)C[C@@H](C)C[C@H](C)C(=O)C1=C(O)/C(=C/c2ccccc2)NC1=O [Acp D, Arcopilin D]
lowest concentration with significant dispersal effects [1]: 31.3 µg/mL
MIC ([12]; Mycolicibacterium smegmatis, ATCC700084, ATCC 700084, – = no activity observed under test conditions): 66.7 µg/mL (≈ 188 µM)
MIC M. smegmatis [12, 20]: 66,7
MIC [7]: 4.2 µg/mL (≈ 11.8 µM)
MIC B. subtilis [7]: 4,2
IC50 [9]: 0.8 µg/mL (≈ 2.25 µM)
IC50 [10]: 1.7 µg/mL (≈ 4.78 µM)
MIC [11, 22]: 66.7 µg/mL (≈ 188 µM)
MIC M. hiemalis [11]: 66,7

CNC(C)C1CCC(N)C(OC2C(N)CC(N)C(OC3OCC(C)(O)C(NC)C3O)C2O)O1 (stereo not drawn) [Gentamicin]
increase of the potency of the antibiotic in combination with Acp A [4]: up to 115 fold
FICI, Acp A and GM ([4]; FICI < 0.5: synergistic, value belongs to the combination): < 0.5
MIC [4, 21]: 15.6 µg/mL
MIC in combination (MICc), Acp A and GM ([4]; combination of Acp A (3.9 μg/mL) with GM): 0.13 µg/mL
MIC [5]: 0.4 µg/mL (≈ 0.838 µM)
MIC [13]: 0.42 µg/mL (≈ 0.879 µM)
MIC [14]: 1.7 µg/mL (≈ 3.56 µM)
improvement in the inhibitory effects in combination with Acp A [15]: ~3 fold

C[C@@H]1[C@H](O)[C@@H](C)/C=C/C=C/CC/C=C/C=C/C=C/C=C/C(O[C@H]2O[C@H](C)[C@@H](O)[C@H](N)[C@@H]2O)CC2O[C@](O)(CC(O)C(O)CCC(O)CC(O)CC(O)CC(=O)O[C@H]1C)CC(O)C2C(=O)O (stereo partly drawn) [Nystatin, reference compound]
MIC against fungi, S. pombe ([2]; DSM 70572, – = no activity observed under test conditions): 4.2^e μg/mL
MIC against fungi, C. albicans ([3]; DSM 1665, – = no activity observed under test conditions): 8.3^e μg/mL
MIC against fungi, W. anomalus [16]: 8.3^e μg/mL
MIC against fungi, R. glutinis [17]: 4.2^e μg/mL
MIC against fungi, M. hiemalis [11, 22]: 8.3^e μg/mL

CN[C@H](CC(C)C)C(=O)N[C@H]1C(=O)N[C@@H](CC(N)=O)C(=O)N[C@H]2C(=O)N[C@H]3C(=O)N[C@H](C(=O)N[C@H](C(=O)O)c4cc(O)cc(O)c4-c4cc3ccc4O)[C@H](O)c3ccc(c(Cl)c3)Oc3cc2cc(c3O[C@@H]2O[C@H](CO)[C@@H](O)[C@H](O)[C@H]2O[C@H]2C[C@](C)(N)[C@H](O)[C@H](C)O2)Oc2ccc(cc2Cl)[C@H]1O [Vac, vancomycin]
increase of the potency of the antibiotic in combination with Acp A [4]: ≤ 31 fold
MIC ([4]; DSM1104, read-out: MIC of each single compound (MICs)): 2 µg/mL
MIC in combination (MICc), Acp A and Vac ([4]; combination of Acp A (3.9 μg/mL) with Vac): 0.065 µg/mL
improvement in the inhibitory effects in combination with Acp A [15]: ~3 fold

C/C=C(\C)[C@@H]1C(C)=C[C@]2(C)C[C@H](C)CC[C@H]2[C@@H]1C(=O)C1=C[C@](Cc2ccccc2)(OC)NC1=O [chaetolivacine B]
antibacterial properties against S. aureus [18]: moderate antibacterial properties
antibacterial properties against MRSA [19]: moderate antibacterial properties

Source: article PMC11403616, “Arcopilins: A New Family of Staphylococcus aureus Biofilm Disruptors from the Soil Fungus Arcopilus navicularis” (Journal of Medicinal Chemistry, 2024)
